From patent US5843885A, “ICAM-1/LFA-1 short-chain peptides and method of using same” (The University of Kansas, priority 1997, dated 1998) come the findings set out here.

Where no end group is shown, it is not given here.

The target of one series is T1, ICAM-1 on Molt3 cells (Homo sapiens, UniProt P05362).
T1 construct: host or cells: Molt3 human T-cell line
The experiment in a line: Conformation modulator assay: binding of FITC-labeled RB-1-88 peptide to T-cells (FACS). Particulars: first peptide 4550 μM, then FITC-labeled RB-1-88 1.90 μM. The procedure:
The antibody binding assay of Example 2 was twice repeated at a peptide concentration of 4550 μM, each time substituting a 455 nmol quantity of synthetic peptide selected from the group consisting of ICAM-based peptide SC-3-111 (Sequence ID No. 10) and LFA-based peptide LJCRF-4 (Sequence ID No. 16) in respective assays. Following incubation for 30 minutes at 37° C. after introduction of the first peptides, both incubated culture were supplemented by an additional quantity of FITC-labeled RB-1-88 (Sequence ID No. 19) peptide in a quantity sufficient to provide a 1.90 μM concentration in the cell/PBS solution.
Following addition of the RB-1-88 (Sequence ID No. 19) peptide, the mixture was incubated for 30 minutes at 4° C., washed three times with 500 μl PBS/BSA, resuspended in 500 μl PBS/BSA and immediately subjected to a flow cytometer analysis as before. Table 3 presents the results of this analysis, which are also depicted in FIGS. 8 (SC-3-111) and 9 (LJCRF-4).

For series [1], the target named is T2, ICAM-1 (CD54) on Molt3 cells (Homo sapiens, UniProt P05362).
T2 construct: host or cells: Molt3 human T-cell line
In words: Antibody binding assay (FACS): anti-CD54 mAb binding to Molt3 T-cells. As to conditions: for Fluorescence, % change from control of the medium fluorescence intensity: mAb CD54.

In a further series the test system is Molt3 cells. The experiment in a line: Cell metabolic assay (MTT). The class given is cell-based, human. The procedure: After taking the photographs in Example 3 (and in some instances no photographs were taken), cell metabolic activity was assessed by an MTT assay. A 37.5 μl portion of MTT dye (purchased from SIGMA of St. Louis, Mo.), i.e., 3-[4,5-dimethyl thiazole-2yl]-2, 5-diphenyl tetrazolium bromide; thiazolyl blue) was added to each well, and incubated with the cells at 37° C. for about six hours. After incubation, a 250 μl quantity of a MTT solubilization solution (of a type that may be purchased from either Fischer Scientific of St. Louis, Mo. or BCD Labs of Lawrence, Kans.) was added to each well, and incubated with the cells at room temperature overnight. In the morning, the spectrophotometric absorption of each plate was determined at 570 nm in a microplate ELISA reader manufactured by Cambridge Technologies of Watertown, Mass., in order to assess cell viability as an indicator of potential peptide toxicity.

The target of series [2] is T3, LFA-1 (CD11a) on Molt3 cells (Homo sapiens, UniProt P20701).
T3 construct: host or cells: Molt3 human T-cell line
The experiment in a line: Antibody binding assay (FACS): anti-CD11a mAb binding to Molt3 T-cells. As to conditions: for Fluorescence, % change from control of the medium fluorescence intensity: mAb CD11a, average ± standard error; for blocking efficiency: single run (FIGS. 2 and 3). The procedure:
A 1 ml quantity of the Molt3 inoculum was warmed to 37° C. and transferred by pipette into about 25 ml of a growth culture medium including RPMI 1640 lymphocyte growth medium (Fisher Scientific of St. Louis, Mo.) mixed with 10% by volume fetal calf serum, 100 units/ml penicillin, 100 μg/ml streptomycin and 2 mM glutamine. The inoculated culture was incubated for three to four days at 37° C. under a normal atmosphere having about 5% CO2 added thereto. This culture was capable of being maintained indefinitely by siphoning away the top (non-cell containing) layer and adding 50 ml (or more) of growth culture medium at intervals of three to four days.
An aqueous buffer solution including Dulbecco's phosphate buffered saline and bovine serum albumin ("PBS/BSA solution") was prepared for use, and included a mixture of 200 mg KH2 PO4, 1.15 g Na2 HPO4, 100 mg CaCl2, 200 mg KC1, 100 mg MgCl2.6H2 O, 8 g NaCl, with distilled water added to a final 1 liter volume at room temperature, thus, forming a "PBS" solution of pH 7.4 to which was added 0.5% by weight bovine serum albumin.
An aliquot of about 7 ml was removed from the incubated culture medium and subjected to washing with the PBS/BSA solution. The washing procedure was initiated by placing the aliquot in a centrifuge (Model GT422 from Jouan, distributed Piruscio & Assoc. of Manchester, Mo.) at 1400 rpm for 6.5 minutes to separate the cells from the growth medium. The supernatant fluid was decanted, a 5 ml portion of PBS/BSA solution was transferred by pipette into the pellet, and the mixture was again centrifuged as before. The resulting supernatant fluid was decanted and the cells from the pellet were resuspended in PBS/BSA solution at a titer of about 1×10^6 cells/ml. A 500 μl portion of the solution containing the resuspended cells was placed in a microcentrifuge (Marathon 13K/M from Fisher Scientific of St. Louis, Mo.) at 3500 rpm for six minutes, to provide a washed pellet.
[…] The cells were incubated with the peptide cocktail at 37° C. for 45 minutes.
After incubation with the peptide cocktail, several antibodies were successively mixed into the incubated solution. A 75 μl portion of anti-IgM solution (a mixture of 10 μl of goat anti-human IgM stock purchased from Jackson Immuno Research of Westgrove, Pa; and 65 μl of PBS/BSA solution) was added to the peptide cocktail for blocking of nonspecific binding of the secondary antibody. The resulting mixture was incubated for 10 minutes on ice. About 0.1 μg of a primary antibody including mouse IgG anti-human CD11a (purified according to conventional protocols at the University of Kansas Department of Pharmacology and Toxicology from an American Type Culture hybridoma cell line having Catalogue Number HB-202) was next stirred into the mixture, which was then incubated for 30 minutes at room temperature. The incubated mixture was placed in a microcentrifuge at 3500 rpm for six minutes to remove the cells from the mixture, and the cell pellet was washed two times by adding 500 μl aliquots of PBS/BSA solution and microfuging to remove non-bound antibodies from the cells as before. The resulting washed pellet was resuspended in 100 μl of a secondary antibody cocktail including 5 μl of fluorescein isothiocyanate ("FITC") labeled goat anti-mouse IgG (from CALTAG of South San Francisco, Calif.) and 95 μl of PBS/BSA solution. The resulting solution was incubated for 30 minutes at room temperature in the dark.
The incubated solution including the secondary antibody cocktail was microfuged at 3500 rpm for six minutes to remove the cells from the solution, and the cell pellet was washed two times with 500 μl portions of PBS/BSA solution, as before, to remove unbound antibodies. […]

Series [3] concerns the target Leucocyte Function Associated antigen-1 (LFA-1), on Molt3 human T-cells (human). In words: flow cytometry on Molt3 T-cells; control without peptide; FITC goat anti-mouse IgG secondary. (In flow cytometry, cells or beads pass a laser one at a time.)
Series [4] has the same target. The experiment in a line: flow cytometry on Molt3 T-cells preincubated with SC-3-111 (run of FIG. 2); FITC goat anti-mouse IgG secondary.
For series [5] the target is unchanged. In words: flow cytometry on Molt3 T-cells; peptide 4550 µM; probe antibody mouse IgG anti-human CD11a; average of 2 runs.
Setting [6] is: peptide 4550 μM, average ± standard error.

T2 sequence (P05362 28-532): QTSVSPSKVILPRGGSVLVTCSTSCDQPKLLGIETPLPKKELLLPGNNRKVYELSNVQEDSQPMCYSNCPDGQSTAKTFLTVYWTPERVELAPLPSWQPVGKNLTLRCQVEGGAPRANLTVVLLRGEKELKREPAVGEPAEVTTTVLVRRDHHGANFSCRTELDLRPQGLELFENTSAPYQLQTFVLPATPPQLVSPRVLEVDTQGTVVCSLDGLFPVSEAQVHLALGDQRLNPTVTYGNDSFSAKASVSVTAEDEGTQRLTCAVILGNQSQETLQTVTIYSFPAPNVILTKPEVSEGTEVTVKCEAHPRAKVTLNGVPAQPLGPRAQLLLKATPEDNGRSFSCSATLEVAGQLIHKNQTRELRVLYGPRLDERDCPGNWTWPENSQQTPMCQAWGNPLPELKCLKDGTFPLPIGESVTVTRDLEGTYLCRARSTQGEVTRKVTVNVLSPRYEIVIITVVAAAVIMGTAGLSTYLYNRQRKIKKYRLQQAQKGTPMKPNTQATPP
T3 sequence (P20701 26-1170): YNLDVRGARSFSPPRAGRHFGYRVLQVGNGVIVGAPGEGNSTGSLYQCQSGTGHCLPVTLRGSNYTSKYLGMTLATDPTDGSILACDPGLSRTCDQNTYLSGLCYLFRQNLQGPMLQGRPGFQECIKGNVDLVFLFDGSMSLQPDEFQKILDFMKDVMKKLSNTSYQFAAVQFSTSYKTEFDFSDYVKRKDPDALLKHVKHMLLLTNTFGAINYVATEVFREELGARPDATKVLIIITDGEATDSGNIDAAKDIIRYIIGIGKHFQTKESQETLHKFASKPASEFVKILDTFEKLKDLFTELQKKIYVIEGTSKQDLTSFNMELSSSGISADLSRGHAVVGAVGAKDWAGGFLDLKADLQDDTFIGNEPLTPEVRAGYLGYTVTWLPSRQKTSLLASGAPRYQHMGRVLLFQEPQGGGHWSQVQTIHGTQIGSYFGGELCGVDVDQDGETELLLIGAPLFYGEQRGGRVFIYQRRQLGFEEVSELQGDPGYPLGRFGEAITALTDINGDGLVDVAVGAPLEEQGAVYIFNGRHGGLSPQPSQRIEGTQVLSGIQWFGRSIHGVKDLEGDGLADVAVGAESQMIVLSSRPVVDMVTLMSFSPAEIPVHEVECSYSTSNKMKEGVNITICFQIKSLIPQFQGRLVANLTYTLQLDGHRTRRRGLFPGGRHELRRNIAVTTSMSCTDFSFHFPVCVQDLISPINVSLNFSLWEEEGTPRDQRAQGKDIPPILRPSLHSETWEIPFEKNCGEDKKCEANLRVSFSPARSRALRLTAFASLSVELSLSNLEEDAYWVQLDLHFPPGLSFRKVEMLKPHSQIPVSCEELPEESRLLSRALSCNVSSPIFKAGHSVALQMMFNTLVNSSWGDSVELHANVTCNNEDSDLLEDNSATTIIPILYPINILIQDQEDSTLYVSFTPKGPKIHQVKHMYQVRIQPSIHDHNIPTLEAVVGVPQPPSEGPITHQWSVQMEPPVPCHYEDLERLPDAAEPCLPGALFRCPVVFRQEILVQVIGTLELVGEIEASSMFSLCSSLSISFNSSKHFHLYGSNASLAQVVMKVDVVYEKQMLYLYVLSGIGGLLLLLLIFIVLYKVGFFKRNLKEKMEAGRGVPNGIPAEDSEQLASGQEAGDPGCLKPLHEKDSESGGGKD
T3 sequence (P05107 23-769 partner): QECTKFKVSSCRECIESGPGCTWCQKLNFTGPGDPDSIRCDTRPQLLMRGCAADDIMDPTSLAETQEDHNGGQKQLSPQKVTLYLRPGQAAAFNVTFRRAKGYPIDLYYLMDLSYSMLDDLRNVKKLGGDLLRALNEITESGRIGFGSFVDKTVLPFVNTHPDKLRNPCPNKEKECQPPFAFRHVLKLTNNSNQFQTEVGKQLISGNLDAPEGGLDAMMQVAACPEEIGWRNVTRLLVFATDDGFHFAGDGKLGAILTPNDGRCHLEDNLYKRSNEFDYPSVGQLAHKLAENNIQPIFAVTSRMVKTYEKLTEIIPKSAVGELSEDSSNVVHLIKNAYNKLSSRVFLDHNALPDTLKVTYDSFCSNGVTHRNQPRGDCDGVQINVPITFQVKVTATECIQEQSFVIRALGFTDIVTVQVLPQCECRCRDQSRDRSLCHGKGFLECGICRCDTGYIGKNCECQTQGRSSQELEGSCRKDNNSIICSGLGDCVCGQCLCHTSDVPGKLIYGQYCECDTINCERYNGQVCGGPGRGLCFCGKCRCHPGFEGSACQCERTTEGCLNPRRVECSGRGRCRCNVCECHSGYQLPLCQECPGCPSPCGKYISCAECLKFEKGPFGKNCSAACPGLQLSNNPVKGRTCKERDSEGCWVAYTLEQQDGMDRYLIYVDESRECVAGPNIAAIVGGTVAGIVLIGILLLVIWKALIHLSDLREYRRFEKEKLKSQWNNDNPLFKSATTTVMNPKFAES
T1 sequence (P05362 28-532): as the sequence (P05362 28-532) above

For the molecule DLSYSLDDLRNVKKLGGDLLRALNE [LJCRF-4], the “FACS Analysis (RB-1-88 binding), shift from control” value on ICAM-1 on Molt3 cells is “+145%”. For the same molecule, the “Fluorescence, % change from control of the medium fluorescence intensity” value (from here on “Fluorescence, % change from control”) in series [1] (peptide 2275 μM, average ± standard error) is “+3 ± 1%”; in series [1] (peptide 6825 μM), “+521%”. Further, the “curve shift / median peak enhancement” value in series [1] (single run (FIG. 4), 4550 μM, anti-ICAM-1 mAb) is listed as “+447%”. The “MTT % Viability” value in the series with Molt3 cells (115 μM) is 99%; with Molt3 cells (115 μM, listed as SC-3-223), 103%; in the series on Molt3 cells (230 μM), 101%; with Molt3 cells (230 μM, listed as SC-3-223) it was 109%; in the series with Molt3 cells (460 μM), 94%; in the series on Molt3 cells (460 μM, listed as SC-3-223), 112%. For the same molecule, the “MTT % Viability” value is reported as 60% in the series on Molt3 cells (910 μM); 108% with Molt3 cells (910 μM, listed as SC-3-223); 11% in the series with Molt3 cells (1820 μM); 75% in the series on Molt3 cells (1820 μM, listed as SC-3-223).

DQPKLLGIETPLPKKELLLPGNNRK [LJCRF-2]: the “Fluorescence, % change from control” value is recorded as “+48 ± 8%” in series [2] (peptide 2275 μM) and -43 ± 7% in series [2] (peptide 4550 μM). Further, the “MTT % Viability” value in the series on Molt3 cells (230 μM) turned out to be 38%; in the series on Molt3 cells (460 μM) it was 38%; in the series with Molt3 cells (910 μM), 38%; in the series with Molt3 cells (1820 μM) it was 43%; in the series with Molt3 cells (concentration not given) it was 38%.

GVDVDQDGETELIGAPLFYGEQRG [LJCRF-5]: the “Fluorescence, % change from control” value in series [1] (setting [6]) is given as -17%. The “MTT % Viability” value with Molt3 cells (115 μM) is given as 95%; with Molt3 cells (230 μM) it was 84%; in the series with Molt3 cells (460 μM), 81%; in the series on Molt3 cells (910 μM) it was 52%; with Molt3 cells (1820 μM) it was 20%. In addition, the “metabolic activity in MTT assay” value with Molt3 cells (1820 μM) is on record as “decrease in metabolic activity”.

ITDGEATDSGNIDAAKDIIYIIGI [LJCRF-6]: the “Fluorescence, % change from control” value in series [1] (setting [6]) is -4%.

With KELLLPGNNRKVYELSNVQEDSQP [LJCRF-3], the “Fluorescence, % change from control” value in series [2] (peptide 4550 μM) was -13 ± 19%.

In the case of LPRGGSVLVTG [MC-1-80], the “metabolic activity in MTT assay” value in the series on Molt3 cells (910 μM) is “cellular respiration was enhanced”.

For the molecule QTSVSPSKVI [SC-3-111], the “Fluorescence, % change from control” value in series [2] (peptide 2275 μM) is listed as -12 ± 4%; in series [2] (peptide 4550 μM), -29 ± 2%. In addition, in series [2] (single run (FIG. 2), 4550 μM, anti-CD11a), the “% change of median peak from control” value is recorded as -51%. Moreover, the blocking efficiency in series [2] (4550 μM, anti-CD11a) was determined as 51%. For the same molecule, the “MTT % Viability” value with Molt3 cells (230 μM) was found to be 93%; with Molt3 cells (460 μM) it was 95%; in the series on Molt3 cells (910 μM), 89%; in the series on Molt3 cells (1820 μM), 69%; in the series with Molt3 cells (concentration not given) it was 85%.

As to QTSVSPSKVILPRGGSVLVTG [LJCRF-1], the “Fluorescence, % change from control” value in series [2] (peptide 2275 μM) is reported as -12 ± 2%; in series [2] (peptide 4550 μM) it was -29 ± 3%. Moreover, the blocking efficiency in series [2] (4550 μM, anti-CD11a) is recorded as 65%. Further, the figures for the “MTT % Viability” value with Molt3 cells (460 μM), in the series on Molt3 cells (910 μM) and with Molt3 cells (1820 μM) were 93%, 92% and 66%, respectively.

For the molecule “mouse IgG anti-human CD11a (from American Type Culture hybridoma cell line HB-202) (antibody)”, the median peak fluorescence intensity (fluorescence intensity) was 264 in series [3] and 129 in series [4].

Regarding KELLLPGNNRKVYELSNVQEDSQP [LJCRF-3], in series [5], the % change from control of the median fluorescence intensity (% change from control) is -13.
